# Data reported in patent US7544709B2, “Derivatives of andrimide and moiramide B having antibacterial properties” (Bayer Healthcare AG, priority 2001, dated 2009).
# Read-outs that look alike come from different tables or passages of the source.
# Experiments:
# [1] = tested on: Staphylococcus aureus 133; assay: Determination of minimum inhibitory concentration (MIC), liquid dilution test; format: cell-based
# Protocol: (§1) Determination of Minimum Inhibitory Concentration (MIC):
# (§2) The MIC is determined in the liquid dilution test. Overnight cultures of the test organisms are diluted to a cell count of 10^5 organisms per ml in Isosensitest medium (manufacturer: Difco) and are incubated with dilutions of the test substances (1:2 dilution states). Exceptions are the tests with S. pneumoniae G9A, which are conducted in BHI broth (Difco) plus 20% bovine serum, and with H. influenzae, which are conducted in BHI broth (Difco) plus 20% bovine serum, 10 μg/ml hemin and 1% Isovitale (Becton Dickinson).
# (§3) The cultures are incubated at 37° C. for 18-24 hours; S. pneumoniae and H. influenzae in the presence of 8-10% CO2.
# (§4) The lowest concentration of each substance at which there was no longer any visible bacterial growth is defined as the MIC. The MICs in μmol/l of some compounds according to the invention against a series of test organisms are listed by way of example in the table below.
# [2] = tested on: Haemophilus influenzae Spain 7; assay: as above; format: cell-based; conditions: SPAIN7, BHI broth plus 20% bovine serum, 10 μg/ml hemin and 1% Isovitale, 37° C., 18-24 hours, 8-10% CO2
# Protocol: as §1, §2, §3, §4
# [3] = described in the literature; cited from earlier work
# [4] = Staphylococcus aureus, 133, liquid dilution test, Isosensitest medium, 10^5 organisms per ml, 37° C., 18-24 hours, lowest concentration with no visible growth, read-out: MIC Staphylococcus aureus 133
Compound,"MIC [1, 4] [µM]",MIC [2] [µM],"MIC ([1]; Staphylococcus aureus, 133, read-out: MIC Staphylococcus aureus 133) [µM]",antibacterial activity [3]
"CC(C)[C@H](NC(=O)C[C@H](NC(=O)NCc1ccccc1)c1ccccc1)C(=O)[C@@H]1C(=O)NC(=O)[C@H]1C [Example 2, (S)-3-(3-Benzylureido)-N-{(S)-2-methyl-1-[1-((3R,4S)-4-methyl-2,5-dioxopyrrolidin-3-yl)-methanoyl]propyl}-3-phenylpropionamide]",3.9,62.5,–,–
"CC(C)[C@H](NC(=O)C[C@H](NC(=O)Nc1ccccc1)c1ccccc1)C(=O)[C@@H]1C(=O)NC(=O)[C@H]1C [Example 5, (S)-N-{(S)-2-Methyl-1-[1-((3R,4S)-4-methyl-2,5-dioxopyrrolidin-3-yl)-methanoyl]-propyl}-3-phenyl-3-(3-phenylureido)propionamide]",62.5,–,–,–
"COc1ccc(NC(=O)N[C@@H](CC(=O)N[C@H](C(=O)[C@@H]2C(=O)NC(=O)[C@H]2C)C(C)C)c2ccccc2)cc1 [Example 6, (S)-3-[3-(4-Methoxyphenyl)ureido]-N-{(S)-2-methyl-1-[1-((3R,4S)-4-methyl-2,5-dioxopyrrolidin-3-yl)methanoyl]propyl}-3-phenylpropionamide]",62.5,62.5,–,–
"CC(C)[C@H](NC(=O)C[C@H](NC(=O)N(C)c1ccccc1)c1ccccc1)C(=O)[C@@H]1C(=O)NC(=O)[C@H]1C [Example 7, (S)-N-{(S)-2-Methyl-1-[1-((3R,4S)-4-methyl-2,5-dioxopyrrolidin-3-yl)methanoyl]-propyl}-3-(3-methyl-3-phenylureido)-3-phenylpropionamide]",15.6,31.3,–,–
"CC(C)[C@H](NC(=O)CC(NC(=O)Nc1cccc2ccccc12)c1ccccc1)C(=O)[C@@H]1C(=O)NC(=O)[C@H]1C (stereo partly drawn) [Example 9, N-((1s)-2-Methyl-1-{[(3R,4S)-4-methyl-2,5-dioxo-3-pyrrolidinyl]carbonyl}propyl)-3-{[(1-naphthylamino)carbonyl]amino}-3-phenylpropionamide]",7.8,62.5,–,–
CC(C)[C@H](NC(=O)CC(NC(=O)Nc1ccc(Cl)c(C(F)(F)F)c1)c1ccccc1)C(=O)[C@@H]1C(=O)NC(=O)[C@H]1C (stereo partly shown) [Example 10],7.8,125,–,–
C[C@@H]1C(=O)NC(=O)[C@H]1C(=O)C(NC(=O)C[C@H](NC(=O)OC(C)(C)C)c1ccccc1)C1CCCC1 (stereo partly shown) [Example 33],31.3,125,–,–
CC(C)[C@H](NC(=O)CC(NC(=O)Oc1ccc(-c2ccccc2)cc1)c1ccccc1)C(=O)[C@@H]1C(=O)NC(=O)[C@H]1C (stereo partly shown) [Example 35],–,–,0.98,–
"CC(C)[C@H](NC(=O)C[C@H](NS(=O)(=O)/C=C/c1ccccc1)c1ccccc1)C(=O)[C@@H]1C(=O)NC(=O)[C@H]1C [Example 47, (3S)-N-((1S)-2-Methyl-1-{[(3R,4S)-4-methyl-2,5-dioxo-3-pyrrolidinyl]carbonyl}-propyl)-3-phenyl-3-({[(E)-2-phenylethenyl]sulfonyl}amino)propionamide]",7.8,125,–,–
C/C=C/C=C/C=C/C(=O)N[C@@H](CC(=O)N[C@H](C(=O)[C@@H]1C(=O)NC(=O)[C@H]1C)C(C)C)c1ccccc1 [andrimid],–,–,–,having antibacterial activity
C/C=C/C=C/C(=O)N[C@@H](CC(=O)N[C@H](C(=O)[C@@H]1C(=O)NC(=O)[C@H]1C)C(C)C)c1ccccc1 [moiramide B],–,–,–,having antibacterial activity
C/C=C/C=C/C=C/C(=O)N[C@@H](CC(=O)N[C@H](C(=O)[C@@]1(O)C(=O)NC(=O)[C@H]1C)C(C)C)c1ccccc1 [moiramide C],–,–,–,inactive
